Patent US20200239530A1, “COMPOUNDS AND METHODS OF MODULATING PROTEIN DEGRADATION” (Vividion Therapeutics, Inc., priority 2017, published 2020)

Columns and labels:
[1] = target: T1, MAPK8 Mitogen-activated protein kinase 8 (Homo sapiens, UniProt P45983); experiment: Cysteine liganding, probe competition; type: binding; details: for 100 Max / 100 ave / 500 ave / 500 Max: uniprot P45983; for 500 Max: in % (unit assumed)
T1 construct: Cells were resuspended in cold PBS on ice and sonicated with a probe sonicator to achieve lysis; endogenous in cells
Outline: (§1)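 Steps: sonicate cells in cold PBS; treat 5 mg/ml lysate with compound (25° C, 1 hr); add desthiobiotin iodoacetamide probe from a 10 mM stock (25° C, 1 hr); precipitate, reduce, alkylate, digest with trypsin; capture labelled peptides on streptavidin for analysis.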

[2] = target: T2, NEK9 Serine/threonine-protein kinase Nek9 (Homo sapiens, UniProt Q8TD19); experiment: Cysteine liganding, probe competition; type: binding
T2 construct: Cells were resuspended in cold PBS on ice and sonicated with a probe sonicator to achieve lysis; endogenous in cells
T2 sequence (Q8TD19 1-979): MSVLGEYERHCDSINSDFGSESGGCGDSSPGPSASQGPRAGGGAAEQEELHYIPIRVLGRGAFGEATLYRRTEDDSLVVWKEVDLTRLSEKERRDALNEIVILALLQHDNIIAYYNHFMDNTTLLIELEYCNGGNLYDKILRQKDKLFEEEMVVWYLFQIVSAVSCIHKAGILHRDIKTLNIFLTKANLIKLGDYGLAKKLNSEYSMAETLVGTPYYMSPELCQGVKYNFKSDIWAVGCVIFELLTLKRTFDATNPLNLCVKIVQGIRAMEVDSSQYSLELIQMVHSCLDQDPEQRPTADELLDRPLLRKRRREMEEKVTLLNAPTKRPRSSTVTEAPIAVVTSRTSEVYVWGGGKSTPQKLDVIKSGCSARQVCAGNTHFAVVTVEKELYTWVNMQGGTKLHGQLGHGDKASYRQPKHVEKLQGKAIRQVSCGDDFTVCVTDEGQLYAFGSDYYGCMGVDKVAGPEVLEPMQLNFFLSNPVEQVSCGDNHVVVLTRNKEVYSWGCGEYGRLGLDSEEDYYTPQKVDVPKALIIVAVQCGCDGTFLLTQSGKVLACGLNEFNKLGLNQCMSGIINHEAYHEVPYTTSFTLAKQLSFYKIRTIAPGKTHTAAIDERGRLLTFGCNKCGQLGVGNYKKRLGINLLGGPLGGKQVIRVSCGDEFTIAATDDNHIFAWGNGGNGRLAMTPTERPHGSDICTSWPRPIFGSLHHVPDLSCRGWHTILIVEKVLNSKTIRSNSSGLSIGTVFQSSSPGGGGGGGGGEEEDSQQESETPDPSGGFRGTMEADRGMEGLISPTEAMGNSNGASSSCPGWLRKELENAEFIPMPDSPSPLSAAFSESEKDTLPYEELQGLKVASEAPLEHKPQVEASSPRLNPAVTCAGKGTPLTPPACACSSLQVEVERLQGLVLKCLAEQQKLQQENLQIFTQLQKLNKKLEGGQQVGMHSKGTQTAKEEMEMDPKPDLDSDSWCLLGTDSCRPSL
Outline: as §1

T1 sequence (P45983 whole entry): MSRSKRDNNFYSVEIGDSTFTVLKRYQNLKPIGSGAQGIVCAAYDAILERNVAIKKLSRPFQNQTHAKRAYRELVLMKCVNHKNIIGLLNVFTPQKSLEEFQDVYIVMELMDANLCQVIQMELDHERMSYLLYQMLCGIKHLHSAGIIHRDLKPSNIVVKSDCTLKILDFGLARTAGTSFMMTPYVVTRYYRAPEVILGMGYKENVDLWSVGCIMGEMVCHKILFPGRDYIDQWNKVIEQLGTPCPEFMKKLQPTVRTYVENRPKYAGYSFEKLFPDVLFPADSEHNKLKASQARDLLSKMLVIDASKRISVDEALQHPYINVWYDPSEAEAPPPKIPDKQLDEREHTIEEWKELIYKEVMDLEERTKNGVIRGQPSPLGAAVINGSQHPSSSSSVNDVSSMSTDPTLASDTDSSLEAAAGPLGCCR

| SMILES | 100 Max [1] | 100 ave [1] | 500 ave [1] | 500 Max [1] | 100 Max ([2]; uniprot Q8TD19) | 100 ave ([2]; uniprot Q8TD19) | 500 Max ([2]; uniprot Q8TD19) | 500 ave ([2]; uniprot Q8TD19) | Liganded ([1]; MAPK8 Res# 245, uniprot P45983) | Liganded ([2]; NEK9 Res# 260, uniprot Q8TD19) |
| --- | --- | --- | --- | --- | --- | --- | --- | --- | --- | --- |
| O=C(CCl)Nc1cc(C(F)(F)F)cc(C(F)(F)F)c1 [KBO3] | 17.22 | 12.33 | 40.875 | 44.06 | 9.47 | 9.47 | 56.18 | 56.18 | – | – |
| COc1ccc2c(c1)CCCN2C(=O)CCl [KB02] | 44.42 | 26.11 | 76.89 | 78.63 | – | – | – | – | YES | YES |
